For data set [1], the system named is Rattus norvegicus. The data set can be described thus: Anxiolytic activity in Long-Evans hooded rat assessed as open arm time at 0.1 mg/kg, ip by elevated plus maze test. The format is functional. The note with it: route intraperitoneal.
For data set [2], the system named is Rattus norvegicus. The data set can be described thus: Anxiolytic activity in Long-Evans hooded rat assessed as open arm time at 1 mg/kg, ip by elevated plus maze test. The format is functional. To be noted: route intraperitoneal.
Data set [3] relates to Rattus norvegicus. The data set can be described thus: Sedative activity in Long-Evans hooded rat assessed as vertical movements at 10 mg/kg, ip by spontaneous locomotor activity test. To be noted: in vivo. Set-up: dose 10 mg/kg, route intraperitoneal. The format is organism-based.
The test system of data set [4] is Rattus norvegicus. The data set can be described thus: Anxiolytic activity in Long-Evans hooded rat assessed as open arm time at 3 mg/kg, ip by elevated plus maze test. To be noted: route intraperitoneal. The format is functional.
The test system of data set [5] is Rattus norvegicus. The data set can be described thus: Sedative activity in Long-Evans hooded rat assessed as vertical movements at 0.03 mg/kg, ip by spontaneous locomotor activity test. The format is organism-based. Set-up: dose 0.03 mg/kg, route intraperitoneal. The note with it: in vivo.
In data set [6] the test system is Rattus norvegicus. The data set can be described thus: Anxiolytic activity in Long-Evans hooded rat assessed as open arm time at 0.3 mg/kg, ip by elevated plus maze test. The format is functional. To be noted: route intraperitoneal.
Data set [7] deals with Rattus norvegicus. The data set can be described thus: Anxiolytic activity in Long-Evans hooded rat assessed as open arm time at 0.03 mg/kg, ip by elevated plus maze test. It counts as functional. To be noted: route intraperitoneal.
For data set [8], the system named is Rattus norvegicus. The experiment in a line: Sedative activity in Long-Evans hooded rat assessed as vertical movements at 0.3 mg/kg, ip by spontaneous locomotor activity test. The note with it: in vivo. The format is organism-based. Set-up: dose 0.3 mg/kg, route intraperitoneal.
In data set [9] the test system is Rattus norvegicus. The data set can be described thus: Sedative activity in Long-Evans hooded rat assessed as vertical movements at 1 mg/kg, ip by spontaneous locomotor activity test. The format is organism-based. Set-up: dose 1 mg/kg, route intraperitoneal. To be noted: in vivo.
Data set [10] relates to Rattus norvegicus. The data set can be described thus: Sedative activity in Long-Evans hooded rat assessed as vertical movements at 0.1 mg/kg, ip by spontaneous locomotor activity test. It counts as organism-based. Set-up: dose 0.1 mg/kg, route intraperitoneal. The note with it: in vivo.
The test system of data set [11] is Rattus norvegicus. The experiment in a line: Sedative activity in Long-Evans hooded rat assessed as vertical movements at 3 mg/kg, ip by spontaneous locomotor activity test. Set-up: dose 3 mg/kg, route intraperitoneal. The format is organism-based. To be noted: in vivo.
The subject of data set [12] is Rattus norvegicus. The experiment in a line: Sedative activity in Long-Evans hooded rat assessed as vertical movements at 0.5 mg/kg, ip by spontaneous locomotor activity test. The format is organism-based. Set-up: dose 0.5 mg/kg, route intraperitoneal. To be noted: in vivo.
Data set [13] has as its system Rattus norvegicus. The experiment in a line: Anxiolytic activity in Long-Evans hooded rat assessed as open arm time at 0.5 mg/kg, ip by elevated plus maze test. The note with it: route intraperitoneal. The format is functional.

On to `CCCCN(Cc1ccccc1)C[C@H](O)CN1CN(c2ccc(F)cc2)C2(CCN(CC3CCCCCCC3)CC2)C1=O`, for which the Activity with Rattus norvegicus [1] is reported as 72.5%; in the data set on Rattus norvegicus [2] it was 57.8%; with Rattus norvegicus [3] it was -6.2%; in the data set with Rattus norvegicus [4], 24%; in the data set with Rattus norvegicus [5] it was -0.4%; in the data set with Rattus norvegicus [6], 54.4%. In addition, the Activity in the data set with Rattus norvegicus [7] is on record as 5.9%; in the data set with Rattus norvegicus [8], 16%; in the data set on Rattus norvegicus [9] it was 7.6%; in the data set with Rattus norvegicus [10] it was 11.4%; in the data set on Rattus norvegicus [11] it was 2.2%.
`O=C1Nc2ccc(Cl)cc2C(c2ccccc2Cl)=NC1O` (stereo not drawn) [LORAZEPAM]: the Activity in the data set on Rattus norvegicus [12] is listed as -72%; with Rattus norvegicus [13], 222.4%.

The values above are taken from ChEMBL document CHEMBL3393026, “A selective small molecule NOP (ORL-1 receptor) partial agonist for the treatment of anxiety” (Bioorg Med Chem Lett, 2015).
